Test results published in patent US11261186B2, “Biaryl derivative as GPR120 agonist” (LG CHEM, LTD., priority 2014, dated 2022).

Molecular target: T1, hGPR120 (Homo sapiens, UniProt Q5NUL3)
T1 construct: expressed in transfected cells; host or cells: CHO-K1
T1 sequence (Q5NUL3 1-361): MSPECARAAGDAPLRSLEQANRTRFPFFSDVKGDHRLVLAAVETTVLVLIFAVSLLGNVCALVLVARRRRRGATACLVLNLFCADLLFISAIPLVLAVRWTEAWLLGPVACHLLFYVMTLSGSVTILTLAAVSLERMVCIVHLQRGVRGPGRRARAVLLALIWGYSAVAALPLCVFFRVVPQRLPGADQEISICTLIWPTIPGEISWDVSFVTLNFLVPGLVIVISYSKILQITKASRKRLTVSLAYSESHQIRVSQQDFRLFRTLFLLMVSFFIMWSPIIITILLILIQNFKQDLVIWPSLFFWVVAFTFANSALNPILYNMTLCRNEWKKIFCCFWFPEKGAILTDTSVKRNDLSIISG
Experiment: Measurement of Activity of GPR120 Agonist (Cell-Based Assay), Calcium 5 dye fluorescence
Conditions: CHO-K1 cells expressing Ga16 and hGPR120
Protocol: CHO-K1 cells expressing Ga16 and hGPR120 were dispensed into each well of a 96-well plate (3×10^4 cells/100 μl/well) and then incubated in 5% CO2, 37° C. incubator for 18 hours. Each well was treated with 100 μl of Calcium 5 dye (Molecular Devices) solution including 2% DMSO and then incubated in 5% CO2, 37° C. incubator for 1 hour. Serially diluted GPR120 agonists were prepared to a final concentration of 0.5% DMSO in a 96-well plate. Each well was treated with 50 μl of the agonist compounds using Plexstation II, and then fluorescence was measured at Ex 485 nm and Em 525 nm.
Fluorescence increased by the serially diluted GPR120 agonists is calculated as a relative percent (%) value based on the fluorescence represented by the treatment of 1% DMSO only. […] The calculation of measurement was carried out by using statistical software (Prizm).
Activity is denoted based on the following criteria: […]

Row | Structure (SMILES) | EC50 [nM]
1 | CC(CCCC(=O)O)c1c(F)cc(-c2ccccc2NC2CCCC2)cc1F (racemic) [Example 47, 5-(2′-cyclopentylamino-3,5-difluoro-bisphenyl-4-yl)hexanoic acid] | < 200
2 | CC(C)Sc1ncccc1-c1ccc2nc(CCC(=O)O)ccc2c1 [Example 1, 3-[6-(2-isopropylsulfanyl-pyridin-3-yl)-quinolin-2-yl]-propionic acid] | 200 to 2000
3 | CC(C)Sc1cccc(-c2ccc3nc(CCC(=O)O)ccc3c2)n1 [Example 2, 3-[6-(6-isopropylsulfanyl-pyridin-2-yl)-quinolin-2-yl]-propionic acid] | 200 to 2000
4 | O=C(O)COc1ccc2cc(-c3cccc(OC4CCCC4)n3)ccc2c1 [Example 3, [6-(6-cyclopentyloxy-pyridin-2-yl)-naphthalen-2-yloxy]-acetic acid] | 200 to 2000
5 | O=C(O)COc1ccc2cc(-c3cccnc3OC3CCCC3)ccc2c1 [Example 4, [6-(2-cyclopentyloxy-pyridin-3-yl)-naphthalen-2-yloxy]-acetic acid] | 2000 to 20000
6 | CC(C)Sc1ncccc1-c1ccc2cc(OCCCC(=O)O)ccc2c1 [Example 5, 4-[6-(2-isopropylsulfanyl-pyridin-3-yl)-naphthalen-2-yloxy]-butyric acid] | 200 to 2000
7 | CC(C)Sc1ncccc1-c1ccc2c(c1)CCC(CCC(=O)O)O2 (stereo not drawn) [Example 7, 3-[6-(2-isopropylsulfanyl-pyridin-3-yl)-chroman-2-yl]-propionic acid] | < 200
8 | CC(C)Sc1cccc(-c2ccc3c(c2)CCC(CCC(=O)O)O3)n1 (stereo not drawn) [Example 8, 3-[6-(6-isopropylsulfanyl-pyridin-2-yl)-chroman-2-yl]-propionic acid] | < 200
9 | O=C(O)CCC1CCc2cc(-c3cccc(OC4CCCC4)n3)ccc2O1 (stereo not drawn) [Example 9, 3-[6-(6-cyclopentyloxy-pyridin-2-yl)-chroman-2-yl]-propionic acid] | < 200
10 | O=C(O)CCC1CCc2cc(-c3cccnc3OC3CCCC3)ccc2O1 (stereo not drawn) [Example 10, 3-[6-(2-cyclopentyloxy-pyridin-3-yl)-chroman-2-yl]-propionic acid] | < 200
11 | O=C(O)CCC1CCc2cc(-c3cccc(OC4CCCC4)n3)ccc2N1 (stereo not drawn) [Example 11, 3-[6-(6-cyclopentyloxy-pyridin-2-yl)-1,2,3,4-tetrahydro-quinolin-2-yl]-propionic acid] | 200 to 2000
12 | CN1c2ccc(-c3cccc(OC4CCCC4)n3)cc2CCC1CCC(=O)O (stereo not drawn) [Example 12, 3-[6-(6-cyclopentyloxy-pyridin-2-yl)-1-methyl-1,2,3,4-tetrahydro-quinolin-2-yl]-propionic acid] | 200 to 2000
13 | O=C(O)CCCOc1c(F)cc(-c2cccc(OCc3ccccc3)c2)cc1F [Example 17, 4-(3′-benzyloxy-3,5-difluoro-biphenyl-4-yloxy)-butyric acid] | 2000 to 20000
14 | CC(C)Oc1cccc(-c2cc(F)c(OCCCC(=O)O)c(F)c2)c1 [Example 18, 4-(3,5-difluoro-3′-isopropoxy-biphenyl-4-yloxy)-butyric acid] | < 200
15 | CCCOc1cccc(-c2cc(F)c(OCCCC(=O)O)c(F)c2)c1 [Example 19, 4-(3,5-difluoro-3′-propoxy-biphenyl-4-yloxy)-butyric acid] | < 200
16 | O=C(O)CCCOc1c(F)cc(-c2cccc(OCC3CC3)c2)cc1F [Example 20, 4-(3′-cyclopropylmethoxy-3,5-difluoro-biphenyl-4-yloxy)-butyric acid] | < 200
17 | O=C(O)CCCOc1c(F)cc(-c2cccc(OC3CCC3)c2)cc1F [Example 21, 4-(3′-cyclobutoxy-3,5-difluoro-biphenyl-4-yloxy)-butyric acid] | < 200
18 | CC1(C)Cc2cccc(-c3cc(F)c(OCCCC(=O)O)c(F)c3)c2O1 [Example 22, 4-[4-(2,2-dimethyl-2,3-dihydro-benzofuran-7-yl)-2,6-difluoro-phenoxy]-butyric acid] | < 200
19 | CC1(C)Oc2cccc(-c3cc(F)c(OCCCC(=O)O)c(F)c3)c2O1 [Example 23, 4-[4-(2,2-dimethyl-benzo[1,3]dioxol-4-yl)-2,6-difluoro-phenoxy]-butyric acid] | < 200
20 | Fc1cc(-c2cccnc2SC2CCC2)cc(F)c1OCCCc1nnn[nH]1 [Example 25, 2-cyclobutylsulfanyl-3-{3,5-difluoro-4-[3-(1H-tetrazol-5-yl)propoxy]phenyl}pyridin] | 200 to 2000
21 | c1cnc(SC2CCC2)c(-c2ccc(CCCc3nnn[nH]3)cc2)c1 [Example 26, 2-cyclobutylsulfanyl-3-{4-[3-(1H-tetrazol-5-yl)propyl]phenyl}pyridine] | 200 to 2000

Row | Structure (SMILES) | EC50 [nM]
22 | O=C(O)CCCCc1ccc(-c2cccnc2SC2CCC2)cc1 [Example 27, 5-[4-(2-cyclobutylsulfanyl-3-pyridyl)phenyl]pentanoic acid] | < 200
23 | O=C(O)CCCCc1ccc(-c2cccc(SC3CCCC3)n2)cc1 [Example 28, 5-[4-(6-cyclopentylsulfanyl-2-pyridyl)phenyl]pentanoic acid] | < 200
24 | O=C(O)CCCCc1ccc(-c2cccnc2SC2CCCC2)cc1 [Example 29, 5-[4-(2-cyclopentylsulfanyl-3-pyridyl)phenyl]pentanoic acid] | < 200
25 | CCCSc1ncccc1-c1cc(F)c(CCCCC(=O)O)c(F)c1 [Example 31, 5-[2,6-difluoro-4-(2-propylsulfanyl-3-pyridyl)phenyl]pentanoic acid] | < 200
26 | O=C(O)CCCCc1c(F)cc(-c2cccc(OC3CCC3)n2)cc1F [Example 32, 5-[4-(6-cyclobutoxy-2-pyridyl)-2,6-difluoro-phenyl]pentanoic acid] | < 200
27 | O=C(O)CCCCc1c(F)cc(-c2cccc(OC3CCCC3)n2)cc1F [Example 33, 5-[4-(6-cyclopentoxy-2-pyridyl)-2,6-difluoro-phenyl]pentanoic acid] | < 200
28 | O=C(O)CCCCc1c(F)cc(-c2cccc3c2OC(F)(F)O3)cc1F [Example 34, 5-[4-(2,2-difluoro-benzo[1,3]dioxol-4-yl)-2,6-difluoro-phenyl]pentanoic acid] | < 200
29 | O=C(O)CCCCc1c(F)cc(-c2cccnc2SC2CCC2)cc1F [Example 35, 5-[4-(2-cyclobutylsulfanyl-3-pyridyl)-2,6-difluoro-phenyl]pentanoic acid] | < 200
30 | O=C(O)CCCCc1c(F)cc(-c2cccnc2SC2CCCC2)cc1F [Example 36, 5-[4-(2-cyclopentylsulfanyl-3-pyridyl)-2,6-difluoro-phenyl]pentanoic acid] | < 200
31 | O=C(O)CCCCc1c(F)cc(-c2cccnc2OC2CCCC2)cc1F [Example 37, 5-[4-(2-cyclopentoxy-3-pyridyl)-2,6-difluoro-phenyl]pentanoic acid] | < 200
32 | O=C(O)COCCc1c(F)cc(-c2cccnc2SC2CCC2)cc1F [Example 38, {2-[4-(2-cyclobutylsulfanyl-3-pyridyl)-2,6-difluoro-phenyl]ethoxy}acetic acid] | 200 to 2000
33 | CC(CCCC(=O)O)c1ccc(-c2cccnc2SC2CCC2)cc1 (stereo not drawn) [Example 39, 5-[4-(2-cyclobutylsulfanyl-3-pyridyl)phenyl]hexanoic acid] | < 200
34 | CC(CCCC(=O)O)c1ccc(-c2cccc(OC3CCC3)n2)cc1 (stereo not drawn) [Example 40, 5-[4-(6-cyclobutoxy-2-pyridyl)-phenyl]hexanoic acid] | < 200
35 | CC(CCCC(=O)O)c1c(F)cc(-c2cccc(OC3CCC3)n2)cc1F (stereo not drawn) [Example 41, 5-[4-(6-cyclobutoxy-2-pyridyl)-2,6-difluoro-phenyl]hexanoic acid] | < 200
36 | CCSc1ncccc1-c1cc(F)c(C(C)CCCC(=O)O)c(F)c1 (stereo not drawn) [Example 42, 5-[4-(2-ethylsulfanyl-3-pyridyl)-2,6-difluoro-phenyl]hexanoic acid] | < 200
37 | CCCSc1ncccc1-c1cc(F)c(C(C)CCCC(=O)O)c(F)c1 (stereo not drawn) [Example 43, 5-[2,6-difluoro-4-(2-propylsulfanyl-3-pyridyl)-phenyl]hexanoic acid] | < 200
38 | CC(C)Oc1ncccc1-c1cc(F)c(C(C)CCCC(=O)O)c(F)c1 (stereo not drawn) [Example 46, 5-[2,6-difluoro-4-(2-isopropoxy-3-pyridyl)phenyl]hexanoic acid] | < 200
39 | CC(CCCC(=O)O)c1c(F)cc(-c2cccnc2SC2CCC2)cc1F (stereo not drawn) [Example 48, 5-[4-(2-cyclobutylsulfanyl-3-pyridyl)-2,6-difluoro-phenyl]hexanoic acid] | < 200
40 | CC(CCCC(=O)O)c1c(F)cc(-c2cccnc2SC2CCCC2)cc1F (stereo not drawn) [Example 49, 5-[4-(2-cyclopentylsulfanyl-3-pyridyl)-2,6-difluoro-phenyl]hexanoic acid] | < 200
41 | CC(C)Sc1ncccc1-c1cc(F)c(C(C)CCCC(=O)O)c(F)c1 (stereo not drawn) [Example 50, 5-[2,6-difluoro-4-(2-isopropylsulfanyl-3-pyridyl)-phenyl]hexanoic acid] | < 200
42 | CC(CCCC(=O)O)c1c(F)cc(-c2cccnc2OC2CCCC2)cc1F (stereo not drawn) [Example 51, 5-[4-(2-cyclopentoxy-3-pyridyl)-2,6-difluoro-phenyl]hexanoic acid] | < 200
